Source: patent US20100068181A1, “PYRROLO [3, 2-A] PYRIDINE DERIVATIVES FOR INHIBITING KSP KINESIN ACTIVITY” (Schering Corporation, priority 2006, published 2010)
pIC50: −log10 of the molar value.

target: T1, KSP (Homo sapiens, UniProt P52732); test: KSP inhibitory activity, end-point assay; type: biochemical; settings: KSP inhibitory activity based on end-point assay; read-out: IC50 Rating
T1 sequence (P52732 1-1056): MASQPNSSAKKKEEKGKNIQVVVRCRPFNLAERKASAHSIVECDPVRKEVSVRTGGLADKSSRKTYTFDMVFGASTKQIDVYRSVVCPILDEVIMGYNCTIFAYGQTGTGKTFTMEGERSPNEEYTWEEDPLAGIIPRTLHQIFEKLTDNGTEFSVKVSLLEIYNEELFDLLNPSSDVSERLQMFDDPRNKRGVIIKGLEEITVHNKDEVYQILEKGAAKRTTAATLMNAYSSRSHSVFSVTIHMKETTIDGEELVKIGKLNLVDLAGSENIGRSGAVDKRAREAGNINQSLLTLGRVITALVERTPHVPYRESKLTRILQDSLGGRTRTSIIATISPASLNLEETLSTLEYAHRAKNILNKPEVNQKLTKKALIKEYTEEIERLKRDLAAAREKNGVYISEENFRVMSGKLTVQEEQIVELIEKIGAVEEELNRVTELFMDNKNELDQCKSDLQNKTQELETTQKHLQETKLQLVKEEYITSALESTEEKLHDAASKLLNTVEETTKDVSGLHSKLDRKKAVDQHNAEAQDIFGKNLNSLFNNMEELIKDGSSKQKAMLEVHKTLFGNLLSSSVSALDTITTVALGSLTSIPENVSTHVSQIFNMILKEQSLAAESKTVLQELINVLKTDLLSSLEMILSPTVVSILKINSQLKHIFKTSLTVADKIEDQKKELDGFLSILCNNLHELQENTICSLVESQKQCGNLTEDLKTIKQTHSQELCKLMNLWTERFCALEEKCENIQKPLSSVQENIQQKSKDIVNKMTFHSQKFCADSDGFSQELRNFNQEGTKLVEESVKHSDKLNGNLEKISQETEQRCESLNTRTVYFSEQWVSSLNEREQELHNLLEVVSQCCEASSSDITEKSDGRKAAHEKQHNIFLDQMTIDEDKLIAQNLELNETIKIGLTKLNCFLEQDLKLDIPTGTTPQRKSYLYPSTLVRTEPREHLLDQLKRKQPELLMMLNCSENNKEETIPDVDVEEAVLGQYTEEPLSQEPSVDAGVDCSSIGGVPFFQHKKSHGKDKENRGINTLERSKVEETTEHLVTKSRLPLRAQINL
Excerpt: The inhibitory activity of the present compounds towards KSP may be assayed by methods known in the art, for example, by using the methods as described in the examples.

| SMILES | pIC50 |
| --- | --- |
| CC(C)(C)[C@H]1CCc2nc3cc(C(N)=O)[nH]c3cc2C1 (single isomer, unassigned) [Example 21B] | 6.00 to 7.00 |
| CNC(=O)c1cc2nc3c(cc2[nH]1)C[C@H](C(C)(C)C)CC3 (single isomer, unassigned) [Example 22A] | > 7.00 |
| CNC(=O)c1cc2nc3c(cc2[nH]1)C[C@@H](C(C)(C)C)CC3 (single isomer, unassigned) [Example 22B] | 6.00 to 7.00 |
| CCOC(=O)c1cc2nc3c(cc2[nH]1)CC(C(C)(C)C)CC3 (stereo not drawn) [Example 1] | 5.00 to 6.00 |
| CC(C)(C)C1CCc2nc3cc(C(N)=O)[nH]c3cc2C1 (stereo not drawn) [Example 2] | > 7.00 |
| CC(C)(C)C1CCc2nc3cc(C(=O)NCCCO)[nH]c3cc2C1 (stereo not drawn) [Example 9] | 6.00 to 7.00 |
| CC(C)(C)C1CCc2nc3cc(C(=O)NCCCCCN)[nH]c3cc2C1 (stereo not drawn) [Example 10] | 6.00 to 7.00 |
| CC(C)(C)C1CCc2nc3cc(C(=O)NCCCCCCN)[nH]c3cc2C1 (stereo not drawn) [Example 14] | 6.00 to 7.00 |
| C[C@@H](CO)NC(=O)c1cc2nc3c(cc2[nH]1)CC(C(C)(C)C)CC3 (stereo partly drawn) [Example 20] | 5.00 to 6.00 |
| CC(C)(C)C1CCc2nc3cc(CO)[nH]c3cc2C1 (stereo not drawn) [Example 23] | > 7.00 |
| CC(C)(C)C1CCc2nc3c([N+](=O)[O-])c(C(N)=O)[nH]c3cc2C1 (stereo not drawn) [Example 26] | < 5.00 |
| C=Cc1cc2nc3c(cc2[nH]1)CC(C(C)(C)C)CC3 (stereo not drawn) [Example 28] | 5.00 to 6.00 |
| CC(=NO)c1cc2nc3c(cc2[nH]1)CC(C(C)(C)C)CC3 (stereo not drawn) [Example 31] | < 5.00 |
| CCOC(=O)c1[nH]c2cc3c(nc2c1Br)CCC(C(C)(C)C)C3 (stereo not drawn) [Example 34] | < 5.00 |
| CC(C)(C)C1CCc2nc3c(Br)c(C(N)=O)[nH]c3cc2C1 (stereo not drawn) [Example 35] | < 5.00 |
| Cc1[nH]c2cc3c(nc2c1CCO)CCC(C(C)(C)C)C3 (stereo not drawn) [Example 36] | < 5.00 |

| SMILES | pIC50 |
| --- | --- |
| CC(C)(C)C1CCc2nc3c(CCO)c(CO)[nH]c3cc2C1 (stereo not drawn) [Example 37] | < 5.00 |
| CCOC(=O)c1[nH]c2cc3c(nc2c1/C=C/C(=O)OC)CCC(C(C)(C)C)C3 (stereo not drawn) [Example 39] | < 5.00 |
| CCOC(=O)c1cc2nc3c(cc2n1C(C)=O)CC(C(C)(C)C)CC3 (stereo not drawn) [Example 42] | < 5.00 |
| CCOC(=O)c1[nH]c2cc3c(nc2c1C)CCC(C(C)(C)C)C3 (stereo not drawn) [Example 45] | < 5.00 |
| Cc1c(C(N)=O)[nH]c2cc3c(nc12)CCC(C(C)(C)C)C3 (stereo not drawn) [Example 46] | < 5.00 |
| CCOC(=O)c1[nH]c2cc3c(nc2c1CC)CCC(C(C)(C)C)C3 (stereo not drawn) [Example 47] | < 5.00 |
| CCc1c(C(N)=O)[nH]c2cc3c(nc12)CCC(C(C)(C)C)C3 (stereo not drawn) [Example 48] | 5.00 to 6.00 |
| CC(C)(C)C1CCc2nc3c(CCCO)c(C(N)=O)[nH]c3cc2C1 (stereo not drawn) [Example 50] | 6.00 to 7.00 |
| CC(C)(C)OC(=O)NCCCc1c(C(N)=O)[nH]c2cc3c(nc12)CCC(C(C)(C)C)C3 (stereo not drawn) [Example 52] | < 5.00 |
| CC(C)(C)C1CCc2nc3c(CCCN)c(C(N)=O)[nH]c3cc2C1 (stereo not drawn) [Example 53] | < 5.00 |
| CCOC(=O)c1[nH]c2cc3c(nc2c1CC(O)CO)CCC(C(C)(C)C)C3 (stereo not drawn) [Example 54] | < 5.00 |
| CC(C)(C)C1CCc2nc3c(CC(O)CO)c(C(N)=O)[nH]c3cc2C1 (stereo not drawn) [Example 55] | < 5.00 |
| CC(C)(C)C1CCc2nc3c(C#CCCO)c(C(N)=O)[nH]c3cc2C1 (stereo not drawn) [Example 56] | < 5.00 |
| CCOC(=O)c1[nH]c2cc3c(nc2c1NC(=O)COC(C)=O)CCC(C(C)(C)C)C3 (stereo not drawn) [Example 62] | < 5.00 |
| CC(C)(C)C1CCc2nc3c(NC(=O)CO)c(C(N)=O)[nH]c3cc2C1 (stereo not drawn) [Example 63] | 5.00 to 6.00 |
| CCOC(=O)c1[nH]c2cc3c(nc2c1NCCOC)CCC(C(C)(C)C)C3 (stereo not drawn) [Example 64] | < 5.00 |

Results, then the compound that gave them:

| pIC50 | SMILES |
| --- | --- |
| > 7.00 | CC(C)(C)[C@@H]1CCc2nc3cc(C(N)=O)[nH]c3cc2C1 (single isomer, unassigned) [Example 21A] |
| > 7.00 | CNC(=O)c1cc2nc3c(cc2[nH]1)CC(C(C)(C)C)CC3 (stereo not drawn) [Example 3] |
| 6.00 to 7.00 | CCNC(=O)c1cc2nc3c(cc2[nH]1)CC(C(C)(C)C)CC3 (stereo not drawn) [Example 4] |
| 6.00 to 7.00 | CC(C)(C)C1CCc2nc3cc(C(=O)NCCCCN)[nH]c3cc2C1 (stereo not drawn) [Example 5] |
| 6.00 to 7.00 | CC(C)(C)C1CCc2nc3cc(C(=O)NCCN)[nH]c3cc2C1 (stereo not drawn) [Example 6] |
| 6.00 to 7.00 | CC(C)(C)C1CCc2nc3cc(C(=O)NCCO)[nH]c3cc2C1 (stereo not drawn) [Example 7] |
| 5.00 to 6.00 | CC(C)(C)C1CCc2nc3cc(C(=O)NCCCN)[nH]c3cc2C1 (stereo not drawn) [Example 8] |
| 5.00 to 6.00 | CC(C)(C)C1CCc2nc3cc(C(=O)NCCCCCO)[nH]c3cc2C1 (stereo not drawn) [Example 11] |
| < 5.00 | CC(C)(C)C1CCc2nc3cc(C(=O)NCCCCCCO)[nH]c3cc2C1 (stereo not drawn) [Example 12] |
| 5.00 to 6.00 | CC(C)(C)C1CCc2nc3cc(C(=O)NCCCCO)[nH]c3cc2C1 (stereo not drawn) [Example 13] |
| < 5.00 | CC(C)(C)C1CCc2nc3cc(C(=O)NCCc4ccc(O)cc4)[nH]c3cc2C1 (stereo not drawn) [Example 15] |
| < 5.00 | CN1CCN(C(=O)c2cc3nc4c(cc3[nH]2)CC(C(C)(C)C)CC4)CC1 (stereo not drawn) [Example 16] |
| > 7.00 | CC(C)(C)C1CCc2nc3cc(C(=O)NN)[nH]c3cc2C1 (stereo not drawn) [Example 17] |
| < 5.00 | CC(C)(C)C1CCc2nc3cc(C(=O)NCc4ccccc4)[nH]c3cc2C1 (stereo not drawn) [Example 18] |
| < 5.00 | CC(C)(C)C1CCc2nc3cc(C(=O)NCc4cccnc4)[nH]c3cc2C1 (stereo not drawn) [Example 19] |
| 6.00 to 7.00 | CC(C)(C)C1CCc2nc3cc(CN)[nH]c3cc2C1 (stereo not drawn) [Example 25] |

| pIC50 | SMILES |
| --- | --- |
| 6.00 to 7.00 | CC(C)(C)C1CCc2nc3c(N)c(C(N)=O)[nH]c3cc2C1 (stereo not drawn) [Example 27] |
| 6.00 to 7.00 | CC(O)c1cc2nc3c(cc2[nH]1)CC(C(C)(C)C)CC3 (stereo not drawn) [Example 29] |
| 6.00 to 7.00 | CC(=O)c1cc2nc3c(cc2[nH]1)CC(C(C)(C)C)CC3 (stereo not drawn) [Example 30] |
| < 5.00 | CC(C)(C)C1CCc2nc3cc(COC(=O)c4ccccc4)[nH]c3cc2C1 (stereo not drawn) [Example 32] |
| 5.00 to 6.00 | CC(C)(C)C1CCc2nc3cc(CC#N)[nH]c3cc2C1 (stereo not drawn) [Example 33] |
| 5.00 to 6.00 | CC(C)(C)C1CCc2nc3c(CCC(N)=O)c(C(N)=O)[nH]c3cc2C1 (stereo not drawn) [Example 40] |
| 5.00 to 6.00 | CC(C)(C)C1CCc2nc3c(CCC#N)c(C#N)[nH]c3cc2C1 (stereo not drawn) [Example 41] |
| < 5.00 | CC(C)(C)C1CCc2nc3cc(/C=N/NC(N)=S)[nH]c3cc2C1 (stereo not drawn) [Example 43] |
| < 5.00 | CC(=O)NC(Cc1c(C(N)=O)[nH]c2cc3c(nc12)CCC(C(C)(C)C)C3)C(N)=O (stereo not drawn) [Example 44] |
| < 5.00 | CCOC(=O)c1[nH]c2cc3c(nc2c1CCCO)CCC(C(C)(C)C)C3 (stereo not drawn) [Example 49] |
| < 5.00 | CCOC(=O)c1[nH]c2cc3c(nc2c1CCCN)CCC(C(C)(C)C)C3 (stereo not drawn) [Example 51] |
| 6.00 to 7.00 | CC(C)(C)C1CCc2nc3c(CCCCO)c(C(N)=O)[nH]c3cc2C1 (stereo not drawn) [Example 57] |
| < 5.00 | CC(C)(C)C1CCc2nc3c(C#CCCCO)c(C(N)=O)[nH]c3cc2C1 (stereo not drawn) [Example 58] |
| 5.00 to 6.00 | CC(C)(C)C1CCc2nc3c(CCCCCO)c(C(N)=O)[nH]c3cc2C1 (stereo not drawn) [Example 59] |
| 6.00 to 7.00 | CCc1c(C(=O)NCCN)[nH]c2cc3c(nc12)CCC(C(C)(C)C)C3 (stereo not drawn) [Example 60] |
| < 5.00 | CCOC(=O)c1[nH]c2cc3c(nc2c1NCCO)CCC(C(C)(C)C)C3 (stereo not drawn) [Example 65] |

same assay, conditions: numerical IC50 values for representative compounds; read-out: IC50

| SMILES | pIC50 |
| --- | --- |
| CNC(=O)c1cc2nc3c(cc2[nH]1)C[C@H](C(C)(C)C)CC3 (single isomer, unassigned) [Example 22A] | 7.70 |
| CC(C)(C)C1CCc2nc3cc(C(N)=O)[nH]c3cc2C1 (stereo not drawn) [Example 2] | 7.52 |
| CC(C)(C)C1CCc2nc3cc(CO)[nH]c3cc2C1 (stereo not drawn) [Example 23] | 7.40 |

Continued, values first:

| pIC50 | SMILES |
| --- | --- |
| 7.52 | CC(C)(C)[C@@H]1CCc2nc3cc(C(N)=O)[nH]c3cc2C1 (single isomer, unassigned) [Example 21A] |
| 7.30 | CNC(=O)c1cc2nc3c(cc2[nH]1)CC(C(C)(C)C)CC3 (stereo not drawn) [Example 3] |
